In ChEMBL document CHEMBL5291721, “A preclinical secondary pharmacology resource illuminates target-adverse drug reaction associations of marketed drugs” (Nat Commun, 2023):

Assays:
[1] = target: T1, 5-hydroxytryptamine receptor 2C (Homo sapiens, UniProt P28335)
T1 sequence (P28335 whole entry): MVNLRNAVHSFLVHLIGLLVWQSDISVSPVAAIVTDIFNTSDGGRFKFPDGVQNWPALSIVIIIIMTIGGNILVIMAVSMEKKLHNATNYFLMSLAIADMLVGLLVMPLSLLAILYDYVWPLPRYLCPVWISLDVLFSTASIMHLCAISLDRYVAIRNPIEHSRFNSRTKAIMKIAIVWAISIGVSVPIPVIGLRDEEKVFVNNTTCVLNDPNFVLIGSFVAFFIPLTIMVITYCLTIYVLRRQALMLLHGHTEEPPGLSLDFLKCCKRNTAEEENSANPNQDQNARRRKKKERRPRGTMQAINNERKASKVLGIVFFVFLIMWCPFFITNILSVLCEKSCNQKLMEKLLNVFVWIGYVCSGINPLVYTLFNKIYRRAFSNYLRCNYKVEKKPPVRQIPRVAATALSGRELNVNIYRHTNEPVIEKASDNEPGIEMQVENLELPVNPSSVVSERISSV

[2] = target: Sodium-dependent dopamine transporter (Homo sapiens, UniProt Q01959)
Sequence of Sodium-dependent dopamine transporter (Q01959 whole entry): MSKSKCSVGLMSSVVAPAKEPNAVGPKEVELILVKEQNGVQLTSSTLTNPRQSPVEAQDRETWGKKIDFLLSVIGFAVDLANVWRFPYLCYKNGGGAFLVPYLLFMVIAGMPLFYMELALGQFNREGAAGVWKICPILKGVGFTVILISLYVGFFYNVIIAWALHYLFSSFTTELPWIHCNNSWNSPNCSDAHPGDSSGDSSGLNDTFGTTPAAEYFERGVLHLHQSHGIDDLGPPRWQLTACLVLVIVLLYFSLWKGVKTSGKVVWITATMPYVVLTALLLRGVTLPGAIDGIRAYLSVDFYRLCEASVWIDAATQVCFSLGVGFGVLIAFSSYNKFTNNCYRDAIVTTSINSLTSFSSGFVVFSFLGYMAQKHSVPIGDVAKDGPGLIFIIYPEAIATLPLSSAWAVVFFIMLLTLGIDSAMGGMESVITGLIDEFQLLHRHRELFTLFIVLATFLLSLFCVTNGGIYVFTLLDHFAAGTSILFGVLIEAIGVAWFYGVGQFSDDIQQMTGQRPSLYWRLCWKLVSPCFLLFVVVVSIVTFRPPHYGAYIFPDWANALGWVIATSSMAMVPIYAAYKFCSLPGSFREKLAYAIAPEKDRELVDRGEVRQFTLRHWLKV

[3] = target: cGMP-inhibited 3',5'-cyclic phosphodiesterase 3A (Homo sapiens, UniProt Q14432); assay type: functional
Sequence of cGMP-inhibited 3',5'-cyclic phosphodiesterase 3A (Q14432 whole entry): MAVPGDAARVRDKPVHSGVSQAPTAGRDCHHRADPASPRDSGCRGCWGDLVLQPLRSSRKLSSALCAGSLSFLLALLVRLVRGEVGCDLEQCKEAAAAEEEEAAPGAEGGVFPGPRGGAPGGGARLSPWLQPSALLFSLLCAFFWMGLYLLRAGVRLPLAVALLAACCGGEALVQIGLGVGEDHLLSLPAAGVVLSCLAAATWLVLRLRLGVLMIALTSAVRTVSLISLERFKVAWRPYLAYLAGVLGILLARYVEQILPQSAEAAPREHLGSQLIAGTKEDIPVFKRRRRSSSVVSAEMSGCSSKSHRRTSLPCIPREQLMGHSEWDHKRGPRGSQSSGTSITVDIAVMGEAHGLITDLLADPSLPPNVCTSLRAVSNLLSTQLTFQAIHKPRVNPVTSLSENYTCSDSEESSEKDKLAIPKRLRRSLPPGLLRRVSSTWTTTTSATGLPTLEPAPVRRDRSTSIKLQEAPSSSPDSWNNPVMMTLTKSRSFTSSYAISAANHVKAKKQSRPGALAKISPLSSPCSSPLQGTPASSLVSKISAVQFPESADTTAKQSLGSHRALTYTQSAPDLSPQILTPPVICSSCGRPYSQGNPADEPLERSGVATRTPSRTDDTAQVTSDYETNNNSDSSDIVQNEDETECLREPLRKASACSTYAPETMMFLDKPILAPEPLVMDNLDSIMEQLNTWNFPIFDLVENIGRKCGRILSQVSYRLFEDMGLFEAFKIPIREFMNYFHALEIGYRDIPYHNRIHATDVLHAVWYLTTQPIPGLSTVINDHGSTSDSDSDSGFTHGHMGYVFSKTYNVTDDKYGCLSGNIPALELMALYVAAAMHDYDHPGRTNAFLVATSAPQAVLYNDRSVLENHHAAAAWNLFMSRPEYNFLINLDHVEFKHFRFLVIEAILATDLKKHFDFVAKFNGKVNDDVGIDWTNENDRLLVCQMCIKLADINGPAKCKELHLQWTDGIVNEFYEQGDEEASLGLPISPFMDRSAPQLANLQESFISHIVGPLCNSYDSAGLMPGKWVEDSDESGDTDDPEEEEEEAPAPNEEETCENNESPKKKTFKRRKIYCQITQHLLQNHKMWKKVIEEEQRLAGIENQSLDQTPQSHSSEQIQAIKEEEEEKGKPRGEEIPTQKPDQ

[4] = target: Kappa-type opioid receptor (Homo sapiens, UniProt P41145)
Sequence of Kappa-type opioid receptor (P41145 whole entry): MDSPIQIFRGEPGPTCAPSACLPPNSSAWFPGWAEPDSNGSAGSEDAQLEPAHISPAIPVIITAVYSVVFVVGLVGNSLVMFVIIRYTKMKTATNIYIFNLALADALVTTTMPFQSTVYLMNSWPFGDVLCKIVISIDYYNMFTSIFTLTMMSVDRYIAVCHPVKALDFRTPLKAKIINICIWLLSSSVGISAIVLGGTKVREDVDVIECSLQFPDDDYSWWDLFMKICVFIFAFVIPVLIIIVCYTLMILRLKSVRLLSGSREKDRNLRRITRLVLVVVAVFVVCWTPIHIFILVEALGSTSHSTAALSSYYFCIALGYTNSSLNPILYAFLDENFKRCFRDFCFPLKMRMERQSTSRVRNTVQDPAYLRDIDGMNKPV

[5] = target: Glutamate receptor ionotropic, NMDA 1 (Rattus norvegicus, UniProt P35439)
Thromboxane A2 receptor = target: T2, Thromboxane A2 receptor (Homo sapiens, UniProt P21731)
T2 sequence (P21731 whole entry): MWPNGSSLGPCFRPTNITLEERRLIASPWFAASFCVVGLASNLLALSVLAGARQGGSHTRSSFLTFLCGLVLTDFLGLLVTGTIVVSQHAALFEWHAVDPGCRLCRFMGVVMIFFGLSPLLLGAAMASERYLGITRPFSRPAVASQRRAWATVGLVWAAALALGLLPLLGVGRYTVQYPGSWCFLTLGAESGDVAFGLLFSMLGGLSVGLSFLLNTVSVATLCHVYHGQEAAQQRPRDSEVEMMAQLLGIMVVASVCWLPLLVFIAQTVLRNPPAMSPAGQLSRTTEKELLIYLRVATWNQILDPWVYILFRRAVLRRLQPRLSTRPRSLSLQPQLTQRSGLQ

Glucocorticoid receptor = target: T3, Glucocorticoid receptor (Homo sapiens, UniProt P04150)
T3 sequence (P04150 whole entry): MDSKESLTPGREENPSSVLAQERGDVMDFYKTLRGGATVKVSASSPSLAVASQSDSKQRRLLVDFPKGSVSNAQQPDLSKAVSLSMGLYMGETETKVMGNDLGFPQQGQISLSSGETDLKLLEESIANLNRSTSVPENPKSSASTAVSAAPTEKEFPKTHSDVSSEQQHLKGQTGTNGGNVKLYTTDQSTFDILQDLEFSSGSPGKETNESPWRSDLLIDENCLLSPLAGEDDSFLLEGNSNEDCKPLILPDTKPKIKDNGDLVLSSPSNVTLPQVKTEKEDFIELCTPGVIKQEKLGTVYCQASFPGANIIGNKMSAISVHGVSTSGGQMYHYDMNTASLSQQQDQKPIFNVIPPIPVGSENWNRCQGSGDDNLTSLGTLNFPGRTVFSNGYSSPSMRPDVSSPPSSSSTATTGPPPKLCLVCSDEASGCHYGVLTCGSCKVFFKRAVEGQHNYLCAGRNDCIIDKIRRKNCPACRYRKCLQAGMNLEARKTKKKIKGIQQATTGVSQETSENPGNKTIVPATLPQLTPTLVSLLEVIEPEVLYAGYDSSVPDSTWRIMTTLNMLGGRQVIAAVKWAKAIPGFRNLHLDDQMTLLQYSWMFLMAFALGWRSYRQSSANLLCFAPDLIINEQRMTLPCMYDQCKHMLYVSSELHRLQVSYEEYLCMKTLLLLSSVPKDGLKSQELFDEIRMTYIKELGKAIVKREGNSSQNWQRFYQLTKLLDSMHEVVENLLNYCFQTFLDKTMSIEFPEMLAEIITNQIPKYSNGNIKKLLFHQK

B2 bradykinin receptor = target: T4, B2 bradykinin receptor (Homo sapiens, UniProt P30411)
T4 sequence (P30411 whole entry): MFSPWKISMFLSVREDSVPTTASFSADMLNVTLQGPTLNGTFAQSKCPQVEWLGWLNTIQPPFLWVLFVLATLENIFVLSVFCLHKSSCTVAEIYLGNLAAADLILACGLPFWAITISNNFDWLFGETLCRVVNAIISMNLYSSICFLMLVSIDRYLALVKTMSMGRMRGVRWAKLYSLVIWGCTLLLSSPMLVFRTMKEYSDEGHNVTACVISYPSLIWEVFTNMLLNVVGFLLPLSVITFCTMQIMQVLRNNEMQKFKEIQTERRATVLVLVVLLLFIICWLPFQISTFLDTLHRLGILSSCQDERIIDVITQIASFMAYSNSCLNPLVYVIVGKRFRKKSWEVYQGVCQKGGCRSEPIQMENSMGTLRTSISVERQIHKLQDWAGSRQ

Histamine H3 receptor = Histamine H3 receptor (Homo sapiens, UniProt Q9Y5N1)
Sequence of Histamine H3 receptor (Q9Y5N1 whole entry): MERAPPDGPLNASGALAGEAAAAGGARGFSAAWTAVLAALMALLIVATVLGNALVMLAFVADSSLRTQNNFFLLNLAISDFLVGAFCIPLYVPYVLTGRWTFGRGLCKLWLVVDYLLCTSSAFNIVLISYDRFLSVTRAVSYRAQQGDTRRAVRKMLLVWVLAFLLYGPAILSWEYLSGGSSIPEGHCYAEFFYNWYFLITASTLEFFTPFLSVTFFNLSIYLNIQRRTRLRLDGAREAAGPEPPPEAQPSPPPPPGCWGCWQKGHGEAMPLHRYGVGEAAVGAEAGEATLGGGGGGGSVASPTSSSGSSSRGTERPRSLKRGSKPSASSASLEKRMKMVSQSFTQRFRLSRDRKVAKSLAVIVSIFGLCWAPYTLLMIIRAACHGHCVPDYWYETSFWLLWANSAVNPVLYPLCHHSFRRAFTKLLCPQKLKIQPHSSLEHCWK

[6] = target: 5-hydroxytryptamine receptor 2B (Homo sapiens, UniProt P41595); assay type: functional, cell-based
Sequence of 5-hydroxytryptamine receptor 2B (P41595 whole entry): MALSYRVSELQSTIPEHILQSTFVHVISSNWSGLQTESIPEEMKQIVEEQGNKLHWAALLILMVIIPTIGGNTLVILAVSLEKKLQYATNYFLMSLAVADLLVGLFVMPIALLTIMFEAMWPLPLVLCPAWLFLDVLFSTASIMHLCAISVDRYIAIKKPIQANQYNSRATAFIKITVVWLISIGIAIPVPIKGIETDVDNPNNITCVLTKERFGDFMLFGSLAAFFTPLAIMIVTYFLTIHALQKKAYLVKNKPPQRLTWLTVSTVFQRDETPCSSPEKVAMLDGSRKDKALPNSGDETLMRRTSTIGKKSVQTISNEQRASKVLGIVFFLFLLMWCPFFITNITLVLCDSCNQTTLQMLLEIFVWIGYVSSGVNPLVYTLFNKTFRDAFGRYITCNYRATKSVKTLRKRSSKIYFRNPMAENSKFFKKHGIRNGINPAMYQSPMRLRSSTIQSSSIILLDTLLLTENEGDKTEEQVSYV

[7] = target: Beta-2 adrenergic receptor (Homo sapiens, UniProt P07550)
Sequence of Beta-2 adrenergic receptor (P07550 whole entry): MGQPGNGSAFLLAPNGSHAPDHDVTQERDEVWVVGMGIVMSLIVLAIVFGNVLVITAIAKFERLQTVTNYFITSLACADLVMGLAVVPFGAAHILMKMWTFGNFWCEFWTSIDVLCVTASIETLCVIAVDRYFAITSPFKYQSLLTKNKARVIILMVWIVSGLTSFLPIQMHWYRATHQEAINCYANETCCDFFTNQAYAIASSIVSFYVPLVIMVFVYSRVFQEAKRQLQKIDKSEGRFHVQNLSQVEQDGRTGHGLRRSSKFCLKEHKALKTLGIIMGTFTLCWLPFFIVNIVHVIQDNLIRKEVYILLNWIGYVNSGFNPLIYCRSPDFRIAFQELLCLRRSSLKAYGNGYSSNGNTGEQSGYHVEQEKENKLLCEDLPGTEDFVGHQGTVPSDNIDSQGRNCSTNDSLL

[8] = target: T5, Muscarinic acetylcholine receptor M2 (Homo sapiens, UniProt P08172); assay type: functional, cell-based
T5 sequence (P08172 whole entry): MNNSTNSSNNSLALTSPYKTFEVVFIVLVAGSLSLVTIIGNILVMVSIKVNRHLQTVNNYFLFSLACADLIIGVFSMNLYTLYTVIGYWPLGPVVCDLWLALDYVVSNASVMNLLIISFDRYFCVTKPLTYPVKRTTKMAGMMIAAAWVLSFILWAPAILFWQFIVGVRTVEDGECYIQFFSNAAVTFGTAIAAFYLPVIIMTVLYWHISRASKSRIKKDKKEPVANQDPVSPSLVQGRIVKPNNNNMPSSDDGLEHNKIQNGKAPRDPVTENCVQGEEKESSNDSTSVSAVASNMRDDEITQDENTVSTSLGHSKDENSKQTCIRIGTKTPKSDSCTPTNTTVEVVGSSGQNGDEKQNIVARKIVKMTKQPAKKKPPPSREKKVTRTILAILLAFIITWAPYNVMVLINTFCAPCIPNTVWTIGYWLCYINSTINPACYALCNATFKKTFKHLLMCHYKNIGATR
Further: assay procedure not described here.

| Structure (SMILES) | AC50 [1] | AC50 [2] | AC50 [3] | AC50 [4] | AC50 [5] | AC50 (Thromboxane A2 receptor) | AC50 (Glucocorticoid receptor) | AC50 (B2 bradykinin receptor) | AC50 (Histamine H3 receptor) | AC50 [6] | AC50 [7] | AC50 [8] |
| --- | --- | --- | --- | --- | --- | --- | --- | --- | --- | --- | --- | --- |
| OCc1cc(C(O)CNCCCCCCOCCCCc2ccccc2)ccc1O (centres undefined) [SALMETEROL] | > 30 µM | 0.845 µM | > 30 µM | 11 µM | > 10 µM | > 30 µM | > 30 µM | > 30 µM | > 10 µM | > 10 µM | – | – |
| CN(C(=O)c1c(O)c2ccccc2n(C)c1=O)c1ccccc1 [ROQUINIMEX] | – | > 30 µM | > 30 µM | – | – | – | – | – | – | – | – | – |
| Cn1c(=O)cc(N2CCC[C@@H](N)C2)n(Cc2ccccc2C#N)c1=O [ALOGLIPTIN] | > 30 µM | > 10 µM | > 30 µM | 8.32 µM | > 10 µM | > 30 µM | > 30 µM | > 30 µM | > 10 µM | – | > 10 µM | – |
| O=C1CN=C(c2ccccc2)c2cc([N+](=O)[O-])ccc2N1 [NITRAZEPAM] | > 30 µM | > 10 µM | > 30 µM | > 10 µM | > 10 µM | > 10 µM | > 10 µM | > 10 µM | – | > 10 µM | > 10 µM | > 10 µM |
| Oc1ccc2c(c1)[C@@]13CCCC[C@@]1(O)[C@@H](C2)N(CC1CCC1)CC3 [BUTORPHANOL] | > 30 µM | > 30 µM | > 30 µM | 0.025 µM | > 30 µM | – | > 30 µM | > 30 µM | > 30 µM | > 30 µM | – | > 30 µM |
| CC(=O)[C@]1(O)Cc2c(O)c3c(c(O)c2[C@@H](O[C@H]2C[C@H](N)[C@H](O)[C@H](C)O2)C1)C(=O)c1ccccc1C3=O [IDARUBICIN] | 9.3 µM | 15 µM | > 30 µM | – | > 30 µM | > 30 µM | 0.11 µM | > 10 µM | > 30 µM | – | > 30 µM | – |
| COc1cc2ncnc(Nc3ccc(F)c(Cl)c3)c2cc1NC(=O)/C=C/CN1CCCCC1 [DACOMITINIB ANHYDROUS] | – | 15 µM | > 30 µM | – | – | – | – | – | – | – | – | > 30 µM |
| CC(=O)OCC(=O)[C@@]1(O)[C@H](C)C[C@H]2[C@@H]3CCC4=CC(=O)C=C[C@]4(C)[C@@]3(F)[C@@H](O)C[C@@]21C [DEXAMETHASONE ACETATE] | > 30 µM | > 30 µM | > 30 µM | > 10 µM | > 10 µM | 16 µM | – | > 30 µM | > 10 µM | > 10 µM | > 10 µM | > 10 µM |
| C#CCOc1ccc(N)cc1C(=O)NCCCC [PARSALMIDE] | > 30 µM | > 30 µM | > 30 µM | > 30 µM | > 30 µM | > 30 µM | > 30 µM | > 30 µM | > 30 µM | > 30 µM | – | > 30 µM |
| Cn1cnc2c(F)c(Nc3ccc(Br)cc3Cl)c(C(=O)NOCCO)cc21 [SELUMETINIB] | – | > 30 µM | > 30 µM | – | – | > 30 µM | – | – | – | – | > 10 µM | – |
| NC(=O)CN1CCCC1=O | > 30 µM | > 30 µM | > 30 µM | > 30 µM | > 30 µM | > 30 µM | > 30 µM | > 30 µM | > 30 µM | > 30 µM | – | > 30 µM |
| CCN1CCCC1CNC(=O)c1cc(S(=O)(=O)CC)c(N)cc1OC (centres undefined) [AMISULPRIDE] | > 30 µM | – | > 30 µM | > 30 µM | > 30 µM | – | > 30 µM | > 30 µM | 12 µM | – | – | > 30 µM |
| O=C1CN=C(c2ccccn2)c2cc(Br)ccc2N1 [BROMAZEPAM] | > 30 µM | > 10 µM | > 30 µM | > 10 µM | > 10 µM | > 10 µM | > 10 µM | > 10 µM | – | > 10 µM | > 10 µM | > 10 µM |
| Cc1ncc2n1-c1ccc(Cl)cc1C(c1ccccc1F)=NC2 [MIDAZOLAM] | > 30 µM | > 30 µM | > 30 µM | – | > 10 µM | > 30 µM | > 30 µM | > 30 µM | > 10 µM | > 10 µM | > 10 µM | > 10 µM |
| CC(=O)SC[C@@H](C)C(=O)N1CCC[C@H]1C(=O)N[C@@H](Cc1ccccc1)C(=O)O | > 30 µM | > 30 µM | > 30 µM | 21 µM | > 30 µM | > 30 µM | – | > 30 µM | > 30 µM | > 30 µM | > 30 µM | > 30 µM |
| CC(=O)[C@@]1(O)CC[C@H]2[C@@H]3C=C(Cl)C4=CC(=O)[C@@H]5C[C@@H]5[C@]4(C)[C@H]3CC[C@@]21C [CYPROTERONE] | > 30 µM | > 10 µM | 16 µM | 5.32 µM | > 10 µM | > 10 µM | – | > 10 µM | – | > 10 µM | > 10 µM | > 10 µM |
| CC1=C(C)C(=O)C(C(CCCCCC(=O)O)c2ccccc2)=C(C)C1=O (centres undefined) [SERATRODAST] | > 30 µM | > 30 µM | 25 µM | > 30 µM | > 30 µM | – | > 30 µM | > 30 µM | > 30 µM | > 30 µM | > 30 µM | > 30 µM |
